{"source": "patent US20060135618A1", "about": "“Medicine comprising a thiourea for use as depigmenting agent or anti-mutagenic and anti-carcinogenic agent” (priority 2002, published 2006)", "key": {"[1]": {"tested_on": "melanin-producing human melanocyte-keratinocyte co-cultures", "assay": "Depigmenting effect: melanin extraction from pigmented epidermis co-cultures", "assay_type": "cell-based", "conditions": "for Inhibition % of the melanin in the co-cultures: 2.8 mM in culture medium for 21 days; for inhibition at 2800 µM: read-out: Inhibition % of the melanin in the co-cultures", "description": "The culture media are also supplied by this manufacturer.\nExtraction is carried out on a pool of two culture wells, which are homogenized in 0.45 ml of sodium dodecyl sulphate (SDS) at 1% containing 0.05 mM of EDTA and 10 mM of Tris HCl (amino-2-(hydroxymethyl)-2-propanediol-1,3), pH 6.8. Add 20 μl of proteinase K at 5 mg/ml to each homogenate. Digest over night at 45° C. Then add a further 20 μl of proteinase K and continue incubation for 4 hours. Then add 50 μl of 0.5 M solution of sodium carbonate and 10 μl of a 30% solution of hydrogen peroxide. Maintain the specimens at 80° C. for 30 min and then cool them. Extract the specimens with 100 μl of a chloroform-methanol mixture (2:1, v/v). After centrifugation at 10,000 g for 10 min, measure the optical density of the supernatant at 405 nm. The products are compared in Table 1 below (the results are expressed as percentage inhibition of the melanin in the co-cultures): […]"}, "[2]": {"tested_on": "Salmonella typhimurium TA 104 recN2-4", "assay": "Vitotox test, antimutagenic effect against UVB", "assay_type": "cell-based", "conditions": "cultures irradiated for 20 s, 254 nm, without MMS"}, "[3]": {"tested_on": "Salmonella typhimurium TA 104 recN2-4", "assay": "Vitotox test, antimutagenic effect against MMS (methylmethanesulphonate)", "assay_type": "cell-based", "description": "After incubation of the bacteria with a genotoxic product, the recN promoter is derepressed and the lux operon is expressed: emission of light, the said emission being proportional to the genotoxicity of the product. Some products act directly on the production of light or increase the metabolism of the bacteria, creating false positives. […] The same strain is used as cytotoxicity control (false negatives).\n• In order to test the antimutagenic effect against genotoxic molecules, a genotoxic molecule, methylmethanesulphonate (MMS), is used, which is compared against the genotoxicity of a mixture of reference mutagenic molecules, 4-nitroquinoline oxide and benzo(a)pyrene. MMS is placed alone or mixed with bis MsoBT at increasing concentrations and the emissions of light are compared. […] The test product is used with or without metabolic activation (fraction S9: microsomal homogenate containing cytochrome P450: […] final). • The kinetics of emission of light, as a function of the genotoxicity and of the cytotoxicity of the product, is measured for 3 hours (measurements every 5 minutes) with a Fluoroskan Ascent FL (bermnoLabsystems). • The products are supplied by the companies Sigma-Aldrich. […]"}}}
{"smiles": "CNC(=S)NC", "note": "[Dimethylthiourea, dimethylthiourea, reference compound]", "values": [{"measurement": "Inhibition % of the melanin in the co-cultures", "setting": "[1]", "value": 36, "unit": "%"}]}
{"smiles": "O=c1cc(CO)occ1O", "note": "[Kojic acid, reference compound]", "values": [{"measurement": "inhibition at 35000 µM", "setting": "[1]; Homo sapiens, 504 h, 35 mM in culture medium for 21 days", "value": 32, "unit": "%"}]}
{"smiles": "C[S+]([O-])CCCCNC(=S)NCCCCS(C)(=O)=O", "note": "(stereo not shown) [MSBMSBT, 1-(5-methanesulphinylbutyl)-3-(5-methanesulphonylbutyl)-thiourea]", "values": [{"measurement": "inhibition at 2800 µM", "setting": "[1]; Homo sapiens, 504 h", "value": 18, "unit": "%"}]}
{"smiles": "C[S+]([O-])CCCCNC(=S)NCCCC[S+](C)[O-]", "note": "(stereo not shown) [bis MSiBT, 1,3-bis-(5-methanesulphinylbutyl)-thiourea]", "values": [{"measurement": "Inhibition % of the melanin in the co-cultures", "setting": "[1]", "value": 7.5, "unit": "%"}]}
{"smiles": "CS(=O)(=O)CCCCNC(=S)NCCCCS(C)(=O)=O", "note": "[bis MSoBT, 1,3-bis-(5-methanesulphonylbutyl) thiourea]", "values": [{"measurement": "inhibitory concentration 50 of the mutagenic effect induced by UVB", "setting": "[2]", "value": 25, "unit": "ppm"}, {"measurement": "inhibitory concentration 50 of the mutagenic effect of MMS", "setting": "[3]; with S9", "value": 20, "unit": "ppm"}, {"measurement": "inhibitory concentration 50 of the mutagenic effect of MMS", "setting": "[3]; without S9", "value": 17, "unit": "ppm"}, {"measurement": "melting point", "value": 142, "unit": "°C"}, {"measurement": "inhibition at 2800 µM", "setting": "[1]; Homo sapiens, 504 h", "value": 29.6, "unit": "%"}, {"measurement": "necessary concentration for approx. 30% melanin inhibition, times lower than for kojic acid", "setting": "[1]; relative to kojic acid", "value": 25, "unit": "times"}]}
